#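 Results reflect a 48-hour exposure of cells in 96-well plates to compound at five concentrations. The concentration for 50% growth inhibition is given as GI50.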 Activity calls are given as the source filed them. No stated cut-off is given here; in the data, active = GI50 up to about 1.1 µM and inactive = higher.
# What was measured:
# Assay in all cases: NCI anticancer screen, dose series, 48 h
# UACC-62 = tested on: UACC-62
# OVCAR-3 = tested on: OVCAR-3
# SF-268 = tested on: SF-268
# NCI-H23 = tested on: NCI-H23
# NCI-H226 = tested on: NCI-H226
# A549 = tested on: A549
# SNB-75 = tested on: SNB-75
# IGROV-1 = tested on: IGROV-1
# K562 = tested on: K562
# A498 = tested on: A498
# UACC-257 = tested on: UACC-257
# SK-MEL-5 = tested on: SK-MEL-5
# M14 = tested on: M14
# ACHN = tested on: ACHN
# EKVX = tested on: EKVX
# HCT-116 = tested on: HCT-116
# Malme-3M = tested on: Malme-3M
# RPMI-8226 = tested on: RPMI-8226
SMILES,GI50 (UACC-62),GI50 (OVCAR-3),GI50 (SF-268),GI50 (NCI-H23),GI50 (NCI-H226),GI50 (A549),GI50 (SNB-75),GI50 (IGROV-1),GI50 (K562),GI50 (A498),GI50 (UACC-257),GI50 (SK-MEL-5),GI50 (M14),GI50 (ACHN),GI50 (EKVX),GI50 (HCT-116),GI50 (Malme-3M),GI50 (RPMI-8226)
CCc1cccc(C)c1NC(=O)C(=O)Cc1nc2ccccc2s1,> 100 µM (inactive),> 100 µM (inactive),> 100 µM (inactive),> 100 µM (inactive),> 100 µM (inactive),> 100 µM (inactive),> 100 µM (inactive),0.444 µM (active),> 100 µM (inactive),> 100 µM (inactive),> 100 µM (inactive),> 100 µM (inactive),> 100 µM (inactive),> 100 µM (inactive),> 100 µM (inactive),> 100 µM (inactive),> 100 µM (inactive),–
C/N=N/N(C)C(=O)NC,> 100 µM (inactive),> 100 µM (inactive),> 100 µM (inactive),> 100 µM (inactive),–,> 100 µM (inactive),> 100 µM (inactive),> 100 µM (inactive),> 100 µM (inactive),> 100 µM (inactive),–,> 100 µM (inactive),> 100 µM (inactive),> 100 µM (inactive),–,> 100 µM (inactive),> 100 µM (inactive),> 100 µM (inactive)
CN1C(=O)C(C)(C)NS1(=O)=O,> 100 µM (inactive),> 100 µM (inactive),> 100 µM (inactive),> 100 µM (inactive),–,> 100 µM (inactive),> 100 µM (inactive),> 100 µM (inactive),> 100 µM (inactive),> 100 µM (inactive),> 100 µM (inactive),> 100 µM (inactive),> 100 µM (inactive),> 100 µM (inactive),> 100 µM (inactive),> 100 µM (inactive),> 100 µM (inactive),> 100 µM (inactive)
CN(Cc1ccccc1)C(=O)c1ccccc1C(=O)O,–,> 100 µM (inactive),> 100 µM (inactive),> 100 µM (inactive),> 100 µM (inactive),> 100 µM (inactive),> 100 µM (inactive),> 100 µM (inactive),> 100 µM (inactive),–,> 100 µM (inactive),–,> 100 µM (inactive),> 100 µM (inactive),> 100 µM (inactive),> 100 µM (inactive),> 100 µM (inactive),> 100 µM (inactive)
Cc1cc(N(CCC#N)CCC#N)ccc1/C=C(\NC(=O)/C=C/c1ccccc1)NC(=O)Nc1ccc(Cl)cc1,8.83 µM (inactive),80.5 µM (inactive),62.2 µM (inactive),22.2 µM (inactive),30.9 µM (inactive),32.5 µM (inactive),–,38.8 µM (inactive),2.13 µM (inactive),> 100 µM (inactive),> 100 µM (inactive),3.83 µM (inactive),> 100 µM (inactive),7.28 µM (inactive),47.9 µM (inactive),23.6 µM (inactive),73.6 µM (inactive),> 100 µM (inactive)
COc1ccc(C(=O)N/N=C/c2c(C)n(C)n(-c3ccccc3)c2=O)cc1,> 100 µM (inactive),> 100 µM (inactive),> 100 µM (inactive),> 100 µM (inactive),> 100 µM (inactive),> 100 µM (inactive),> 100 µM (inactive),> 100 µM (inactive),> 100 µM (inactive),> 100 µM (inactive),> 100 µM (inactive),–,> 100 µM (inactive),> 100 µM (inactive),> 100 µM (inactive),> 100 µM (inactive),> 100 µM (inactive),> 100 µM (inactive)
Cc1cc2c(=O)cc(-c3ccc(Cl)c(Cl)c3)oc2c(C(=O)O)c1C,> 100 µM (inactive),> 100 µM (inactive),> 100 µM (inactive),> 100 µM (inactive),> 100 µM (inactive),> 100 µM (inactive),92.3 µM (inactive),> 100 µM (inactive),> 100 µM (inactive),–,> 100 µM (inactive),> 100 µM (inactive),> 100 µM (inactive),> 100 µM (inactive),> 100 µM (inactive),> 100 µM (inactive),> 100 µM (inactive),> 100 µM (inactive)
CCCN(CCC)c1c([N+](=O)[O-])cc(C(=O)N(C)C)cc1[N+](=O)[O-],–,75 µM (inactive),> 100 µM (inactive),53.2 µM (inactive),–,51.5 µM (inactive),17 µM (inactive),69.2 µM (inactive),19.2 µM (inactive),–,35.4 µM (inactive),5.07 µM (inactive),96.6 µM (inactive),16.4 µM (inactive),37.8 µM (inactive),43.4 µM (inactive),52.6 µM (inactive),52.2 µM (inactive)
O=C1/C=C(/c2ccc(O)cc2)[C@@H](O)Cc2ccc(O)cc2O1,31 µM (inactive),> 100 µM (inactive),45.1 µM (inactive),> 100 µM (inactive),0.859 µM (active),56.1 µM (inactive),–,> 100 µM (inactive),–,2.25 µM (inactive),> 100 µM (inactive),> 100 µM (inactive),> 100 µM (inactive),92.7 µM (inactive),> 100 µM (inactive),> 100 µM (inactive),> 100 µM (inactive),–
O=C1CN(C(=O)c2ccccc2)Cc2[nH]c3ccccc3c21,> 100 µM (inactive),> 100 µM (inactive),–,> 100 µM (inactive),> 100 µM (inactive),> 100 µM (inactive),> 100 µM (inactive),> 100 µM (inactive),> 100 µM (inactive),–,> 100 µM (inactive),> 100 µM (inactive),> 100 µM (inactive),> 100 µM (inactive),> 100 µM (inactive),> 100 µM (inactive),> 100 µM (inactive),> 100 µM (inactive)
CCCOc1ccc(/C=C\c2cc(OC)c(OC)c(OC)c2)cc1,41.4 µM (inactive),> 100 µM (inactive),> 100 µM (inactive),–,> 100 µM (inactive),40.7 µM (inactive),85.5 µM (inactive),> 100 µM (inactive),23.8 µM (inactive),26.6 µM (inactive),54 µM (inactive),13.6 µM (inactive),53.3 µM (inactive),73.3 µM (inactive),87.5 µM (inactive),40.5 µM (inactive),62.2 µM (inactive),14.5 µM (inactive)
CCC1=CCC(P(=O)(c2ccccc2)c2ccccc2)CC1C (configuration not stated),33.3 µM (inactive),35.4 µM (inactive),35.2 µM (inactive),39.7 µM (inactive),39.2 µM (inactive),37.1 µM (inactive),18.5 µM (inactive),47.1 µM (inactive),35.2 µM (inactive),38.5 µM (inactive),74.5 µM (inactive),28 µM (inactive),32.6 µM (inactive),–,35.3 µM (inactive),22.9 µM (inactive),41.7 µM (inactive),22.9 µM (inactive)
NC(=O)COc1c(Br)cc(Br)cc1Br,> 100 µM (inactive),> 100 µM (inactive),> 100 µM (inactive),> 100 µM (inactive),> 100 µM (inactive),> 100 µM (inactive),> 100 µM (inactive),–,> 100 µM (inactive),–,> 100 µM (inactive),> 100 µM (inactive),> 100 µM (inactive),> 100 µM (inactive),> 100 µM (inactive),> 100 µM (inactive),> 100 µM (inactive),> 100 µM (inactive)
C/C(CN1C(=O)c2ccccc2C1=O)=N\NS(=O)(=O)c1ccc(C)cc1,> 100 µM (inactive),> 100 µM (inactive),–,> 100 µM (inactive),> 100 µM (inactive),> 100 µM (inactive),> 100 µM (inactive),> 100 µM (inactive),> 100 µM (inactive),> 100 µM (inactive),> 100 µM (inactive),> 100 µM (inactive),> 100 µM (inactive),> 100 µM (inactive),> 100 µM (inactive),> 100 µM (inactive),> 100 µM (inactive),> 100 µM (inactive)
COc1ccc2oc3c(OC)c(OC)c(OC)cc3c(=O)c2c1,> 100 µM (inactive),–,> 100 µM (inactive),> 100 µM (inactive),–,> 100 µM (inactive),24.7 µM (inactive),> 100 µM (inactive),> 100 µM (inactive),> 100 µM (inactive),> 100 µM (inactive),> 100 µM (inactive),> 100 µM (inactive),> 100 µM (inactive),76 µM (inactive),> 100 µM (inactive),> 100 µM (inactive),> 100 µM (inactive)
C#CC1(O)CCC2C3CCc4cc(Oc5nc(F)nc(-c6c7ccccc7c7sc8ccccc8n67)n5)ccc4C3CC[C@@]21C (some centres not stated),> 100 µM (inactive),> 100 µM (inactive),> 100 µM (inactive),33.3 µM (inactive),> 100 µM (inactive),> 100 µM (inactive),22.1 µM (inactive),> 100 µM (inactive),> 100 µM (inactive),–,> 100 µM (inactive),> 100 µM (inactive),26.1 µM (inactive),> 100 µM (inactive),–,> 100 µM (inactive),> 100 µM (inactive),> 100 µM (inactive)
CCNC(=O)O/N=C1\CCC2[C@@H]3CC=C4C[C@@H](OC(=O)NCC)CC[C@]4(C)C3CC[C@]12C (some centres not stated),0.951 µM (active),2.21 µM (inactive),2.94 µM (inactive),1.08 µM (active),–,2.16 µM (inactive),2.69 µM (inactive),4.43 µM (inactive),0.769 µM (active),22.3 µM (inactive),0.422 µM (active),0.807 µM (active),1.31 µM (inactive),1.38 µM (inactive),0.735 µM (active),0.57 µM (active),0.267 µM (active),1.46 µM (inactive)
